From US10611762B2, “Crystalline forms of a FGFR inhibitor and processes for preparing the same” (Incyte Corporation, priority 2017, dated 2020)
Converted amounts (≈) assume the structure as drawn. Each block holds one molecule with its values, some of them ahead of it.

Assays:
Type in all cases: physicochemical
[1] = Solubility measurement in various solvents at 23 ± 1° C. (Procedure 1)
Protocol: (§1) The solubility of the Compound 1 Form I was measured according to Procedure 1 for solubility in 23±1° C. (Table 13) and Procedure 2 for 50±1° C.

[2] = Solubility measurement in various solvents at 50 ± 1° C. (Procedure 2)
Protocol: as §1

[3] = Competitive slurry experiments (stability relationship of Compound 1 forms); settings: in acetone/water (2:1) and acetone/water (1:1), 23-25° C.
Protocol: To evaluate the transformation of Compound 1 solid forms, competitive slurry experiments in production crystallization solvents at 23-25° C. were performed with a mixture of […] polymorphs (Form I through Form XI) according to the procedures in Table 25 (acetone/water 2:1) and Table 26 (acetone/water 1:1).

solubility ([1]; Chloroform, 23 °C, organic solvent or mixture, thermodynamic from solid, Chloroform, read-out: Solubility at 23 ± 1° C.): 26700 µg/mL (≈ 62.1 mM)
solubility ([2]; Chloroform, 50 °C, organic solvent or mixture, thermodynamic from solid, Chloroform, read-out: Solubility at 50 ± 1° C.): > 50000 µg/mL
Compound: C=CC(=O)NCc1cc2c(cn1)CN(c1c(F)c(OC)cc(OC)c1F)C(=O)C21CC1 [Form II]

solubility ([1]; toluene, 23 °C, organic solvent or mixture, thermodynamic from solid, Toluene, read-out: Solubility at 23 ± 1° C.): 150 µg/mL (≈ 0.349 mM)
solubility ([2]; toluene, 50 °C, organic solvent or mixture, thermodynamic from solid, Toluene, read-out: Solubility at 50 ± 1° C.): 170 µg/mL (≈ 0.396 mM)
Compound: C=CC(=O)NCc1cc2c(cn1)CN(c1c(F)c(OC)cc(OC)c1F)C(=O)C21CC1 [Form IV]

solubility ([1]; 1-Propanol, 23 °C, organic solvent or mixture, thermodynamic from solid, 1-Propanol, read-out: Solubility at 23 ± 1° C.): 1720 µg/mL (≈ 4.01 mM)
solubility ([1]; 2-methoxyethanol, 23 °C, organic solvent or mixture, thermodynamic from solid, 2-Methoxyethanol, read-out: Solubility at 23 ± 1° C.): 20200 µg/mL (≈ 47 mM)
solubility ([1]; Acetone/water (1:1), 23 °C, aqueous with cosolvent or surfactant or cyclodextrin, thermodynamic from solid, Acetone/water (1:1), read-out: Solubility at 23 ± 1° C.): 3970 µg/mL (≈ 9.24 mM)
solubility ([1]; Acetone/water (1:2), 23 °C, aqueous with cosolvent or surfactant or cyclodextrin, thermodynamic from solid, Acetone/water (1:2), read-out: Solubility at 23 ± 1° C.): 860 µg/mL (≈ 2 mM)
solubility ([1]; Acetone/water (1:4), 23 °C, aqueous with cosolvent or surfactant or cyclodextrin, thermodynamic from solid, Acetone/water (1:4), read-out: Solubility at 23 ± 1° C.): 170 µg/mL (≈ 0.396 mM)
solubility ([1]; Acetone/water (2:1), 23 °C, aqueous with cosolvent or surfactant or cyclodextrin, thermodynamic from solid, Acetone/water (2:1), read-out: Solubility at 23 ± 1° C.): 12500 µg/mL (≈ 29 mM)
solubility ([1]; Acetone/water (4:1), 23 °C, aqueous with cosolvent or surfactant or cyclodextrin, thermodynamic from solid, Acetone/water (4:1), read-out: Solubility at 23 ± 1° C.): 19400 µg/mL (≈ 45.2 mM)
solubility ([1]; DCM/MeOH (1:1), 23 °C, organic solvent or mixture, thermodynamic from solid, DCM/MeOH (1:1), read-out: Solubility at 23 ± 1° C.): > 50000 µg/mL
solubility ([1]; DMF, 23 °C, organic solvent or mixture, thermodynamic from solid, DMF, read-out: Solubility at 23 ± 1° C.): > 50000 µg/mL
solubility ([1]; DMSO, 23 °C, organic solvent or mixture, thermodynamic from solid, DMSO, read-out: Solubility at 23 ± 1° C.): > 50000 µg/mL
solubility ([1]; DMSO, DMF, DCM/MeOH (1:1), THF/water (4:1), 23 °C, organic solvent or mixture, thermodynamic from solid, at 23° C. in DMSO, DMF, DCM/MeOH (1:1), and THF/water (4:1), read-out: Solubility (completely soluble)): > 50000 µg/mL
solubility ([1]; Dichloromethane, 23 °C, organic solvent or mixture, thermodynamic from solid, Dichloromethane, read-out: Solubility at 23 ± 1° C.): 12400 µg/mL (≈ 29 mM)
solubility ([1]; EtOAc, 23 °C, organic solvent or mixture, thermodynamic from solid, EtOAc, read-out: Solubility at 23 ± 1° C.): 890 µg/mL (≈ 2.07 mM)
solubility ([1]; EtOH, 23 °C, organic solvent or mixture, thermodynamic from solid, EtOH, read-out: Solubility at 23 ± 1° C.): 2010 µg/mL (≈ 4.68 mM)
solubility ([1]; IPA, 23 °C, organic solvent or mixture, thermodynamic from solid, IPA, read-out: Solubility at 23 ± 1° C.): 900 µg/mL (≈ 2.1 mM)
solubility ([1]; IPAc, 23 °C, organic solvent or mixture, thermodynamic from solid, IPAc, read-out: Solubility at 23 ± 1° C.): 440 µg/mL (≈ 1.02 mM)
solubility ([1]; MEK, 23 °C, organic solvent or mixture, thermodynamic from solid, MEK, read-out: Solubility at 23 ± 1° C.): 3580 µg/mL (≈ 8.34 mM)
solubility ([1]; MIBK, 23 °C, organic solvent or mixture, thermodynamic from solid, MIBK, read-out: Solubility at 23 ± 1° C.): 910 µg/mL (≈ 2.12 mM)
solubility ([1]; MeCN, 23 °C, organic solvent or mixture, thermodynamic from solid, MeCN, read-out: Solubility at 23 ± 1° C.): 4590 µg/mL (≈ 10.7 mM)
solubility ([1]; THF, 23 °C, organic solvent or mixture, thermodynamic from solid, THF, read-out: Solubility at 23 ± 1° C.): 3770 µg/mL (≈ 8.78 mM)
solubility ([1]; THF/water (4:1), 23 °C, organic solvent or mixture, thermodynamic from solid, THF/water (4:1), read-out: Solubility at 23 ± 1° C.): > 50000 µg/mL
solubility ([1]; acetone, 23 °C, organic solvent or mixture, thermodynamic from solid, Acetone, read-out: Solubility at 23 ± 1° C.): 5100 µg/mL (≈ 11.9 mM)
Solubility (slightly soluble) ([1]; at 23° C. in MeCN, 1,4-dioxane, MeOH, 2-methoxyethanol, THF, acetone, n-BuOH, EtOH, ethyl formate, 1-propanol, MEK, acetone water (2:1), acetone water (1:1), chloroform and dichloromethane): 1000 to 50000 µg/mL
solubility ([1]; ethyl formate, 23 °C, organic solvent or mixture, thermodynamic from solid, Ethyl formate, read-out: Solubility at 23 ± 1° C.): 2200 µg/mL (≈ 5.12 mM)
solubility ([1]; isobutyl acetate, 23 °C, organic solvent or mixture, thermodynamic from solid, Isobutyl acetate, read-out: Solubility at 23 ± 1° C.): 280 µg/mL (≈ 0.652 mM)
solubility ([1]; methanol, 23 °C, organic solvent or mixture, thermodynamic from solid, Methanol, read-out: Solubility at 23 ± 1° C.): 5350 µg/mL (≈ 12.5 mM)
solubility ([1]; n-BuOH, 23 °C, organic solvent or mixture, thermodynamic from solid, n-BuOH, read-out: Solubility at 23 ± 1° C.): 1180 µg/mL (≈ 2.75 mM)
solubility ([1]; organic solvent or mixture, thermodynamic from solid, at 23° C. in heptane, hexane, toluene, MTBE, isobutyl acetate, IPAc, water, acetone water (1:4), MIBK, EtOAc, IPA, and acetone water (1:2), read-out: Solubility (insoluble)): < 1000 µg/mL
solubility ([1]; water, 23 °C, water, thermodynamic from solid, Water, read-out: Solubility at 23 ± 1° C.): 10 µg/mL (≈ 0.0233 mM)
solubility ([2]; 1-Propanol, 50 °C, organic solvent or mixture, thermodynamic from solid, 1-Propanol, read-out: Solubility at 50 ± 1° C.): 2890 µg/mL (≈ 6.73 mM)
solubility ([2]; 2-methoxyethanol, 50 °C, organic solvent or mixture, thermodynamic from solid, 2-Methoxyethanol, read-out: Solubility at 50 ± 1° C.): 36600 µg/mL (≈ 85.3 mM)
solubility ([2]; 50 °C, organic solvent or mixture, thermodynamic from solid, at 50° C. in DMSO, DMF, DCM/MeOH (1:1), THF/water (4:1), acetone/water (4:1) and chloroform, read-out: Solubility (completely soluble)): > 50000 µg/mL
solubility ([2]; 50 °C, organic solvent or mixture, thermodynamic from solid, at 50° C. in heptane, hexane, toluene, MTBE, isobutyl acetate, IPAc, water, and acetone water (1:4), read-out: Solubility (insoluble)): < 1000 µg/mL
solubility ([2]; Acetone/water (1:1), 50 °C, aqueous with cosolvent or surfactant or cyclodextrin, thermodynamic from solid, Acetone/water (1:1), read-out: Solubility at 50 ± 1° C.): 12600 µg/mL (≈ 29.4 mM)
solubility ([2]; Acetone/water (1:2), 50 °C, aqueous with cosolvent or surfactant or cyclodextrin, thermodynamic from solid, Acetone/water (1:2), read-out: Solubility at 50 ± 1° C.): 3530 µg/mL (≈ 8.22 mM)
solubility ([2]; Acetone/water (1:4), 50 °C, aqueous with cosolvent or surfactant or cyclodextrin, thermodynamic from solid, Acetone/water (1:4), read-out: Solubility at 50 ± 1° C.): 570 µg/mL (≈ 1.33 mM)
solubility ([2]; Acetone/water (2:1), 50 °C, aqueous with cosolvent or surfactant or cyclodextrin, thermodynamic from solid, Acetone/water (2:1), read-out: Solubility at 50 ± 1° C.): 47000 µg/mL (≈ 109 mM)
solubility ([2]; Acetone/water (4:1), 50 °C, aqueous with cosolvent or surfactant or cyclodextrin, thermodynamic from solid, Acetone/water (4:1), read-out: Solubility at 50 ± 1° C.): > 50000 µg/mL
solubility ([2]; DCM/MeOH (1:1), 50 °C, organic solvent or mixture, thermodynamic from solid, DCM/MeOH (1:1), read-out: Solubility at 50 ± 1° C.): > 50000 µg/mL
solubility ([2]; DMF, 50 °C, organic solvent or mixture, thermodynamic from solid, DMF, read-out: Solubility at 50 ± 1° C.): > 50000 µg/mL
solubility ([2]; DMSO, 50 °C, organic solvent or mixture, thermodynamic from solid, DMSO, read-out: Solubility at 50 ± 1° C.): > 50000 µg/mL
solubility ([2]; EtOAc, 50 °C, organic solvent or mixture, thermodynamic from solid, EtOAc, read-out: Solubility at 50 ± 1° C.): 2710 µg/mL (≈ 6.31 mM)
solubility ([2]; EtOH, 50 °C, organic solvent or mixture, thermodynamic from solid, EtOH, read-out: Solubility at 50 ± 1° C.): 8560 µg/mL (≈ 19.9 mM)
solubility ([2]; IPA, 50 °C, organic solvent or mixture, thermodynamic from solid, IPA, read-out: Solubility at 50 ± 1° C.): 2220 µg/mL (≈ 5.17 mM)
solubility ([2]; IPAc, 50 °C, organic solvent or mixture, thermodynamic from solid, IPAc, read-out: Solubility at 50 ± 1° C.): 980 µg/mL (≈ 2.28 mM)
solubility ([2]; MEK, 50 °C, organic solvent or mixture, thermodynamic from solid, MEK, read-out: Solubility at 50 ± 1° C.): 3730 µg/mL (≈ 8.69 mM)
solubility ([2]; MIBK, 50 °C, organic solvent or mixture, thermodynamic from solid, MIBK, read-out: Solubility at 50 ± 1° C.): 2950 µg/mL (≈ 6.87 mM)
solubility ([2]; MeCN, 50 °C, organic solvent or mixture, thermodynamic from solid, MeCN, read-out: Solubility at 50 ± 1° C.): 11600 µg/mL (≈ 26.9 mM)
solubility ([2]; THF, 50 °C, organic solvent or mixture, thermodynamic from solid, THF, read-out: Solubility at 50 ± 1° C.): 11300 µg/mL (≈ 26.3 mM)
solubility ([2]; THF/water (4:1), 50 °C, organic solvent or mixture, thermodynamic from solid, THF/water (4:1), read-out: Solubility at 50 ± 1° C.): > 50000 µg/mL
solubility ([2]; acetone, 50 °C, organic solvent or mixture, thermodynamic from solid, Acetone, read-out: Solubility at 50 ± 1° C.): 15500 µg/mL (≈ 36.1 mM)
solubility ([2]; ethyl formate, 50 °C, organic solvent or mixture, thermodynamic from solid, Ethyl formate, read-out: Solubility at 50 ± 1° C.): 6580 µg/mL (≈ 15.3 mM)
solubility ([2]; hexane, 50 °C, organic solvent or mixture, thermodynamic from solid, Hexane, read-out: Solubility at 50 ± 1° C.): 60 µg/mL (≈ 0.14 mM)
solubility ([2]; isobutyl acetate, 50 °C, organic solvent or mixture, thermodynamic from solid, Isobutyl acetate, read-out: Solubility at 50 ± 1° C.): 750 µg/mL (≈ 1.75 mM)
solubility ([2]; methanol, 50 °C, organic solvent or mixture, thermodynamic from solid, Methanol, read-out: Solubility at 50 ± 1° C.): 17900 µg/mL (≈ 41.6 mM)
solubility ([2]; n-BuOH, 50 °C, organic solvent or mixture, thermodynamic from solid, n-BuOH, read-out: Solubility at 50 ± 1° C.): 6200 µg/mL (≈ 14.4 mM)
solubility ([2]; organic solvent or mixture, thermodynamic from solid, at 50° C. in MeCN, 1,4-dioxane, MeOH, 2-methoxyethanol, THF, acetone, n-BuOH, EtOH, ethyl formate, 1-propanol, MEK, acetone water (2:1), acetone water (1:1), MIBK, EtOAc, IPA, and acetone water (1:2), read-out: Solubility (slightly soluble)): 1000 to 50000 µg/mL (≈ 2.33 to 116 mM)
solubility ([2]; water, 50 °C, water, thermodynamic from solid, Water, read-out: Solubility at 50 ± 1° C.): 10 µg/mL (≈ 0.0233 mM)
Relative stability of polymorphic forms [3]: most stable polymorphic form
Compound: C=CC(=O)NCc1cc2c(cn1)CN(c1c(F)c(OC)cc(OC)c1F)C(=O)C21CC1 [Compound 1 Form I, N-((2′-(2,6-difluoro-3,5-dimethoxyphenyl)-3′-oxo-2′,3′-dihydro-1′H-spiro[cyclopropane-1,4′-[2,7]naphthyridine]-6′-yl)methyl)acrylamide]

solubility ([1]; 1,4-dioxane, 23 °C, organic solvent or mixture, thermodynamic from solid, 1,4-Dioxane, read-out: Solubility at 23 ± 1° C.): 3020 µg/mL (≈ 7.03 mM)
solubility ([2]; 1,4-dioxane, 50 °C, organic solvent or mixture, thermodynamic from solid, 1,4-Dioxane, read-out: Solubility at 50 ± 1° C.): 37800 µg/mL (≈ 88 mM)
Compound: C=CC(=O)NCc1cc2c(cn1)CN(c1c(F)c(OC)cc(OC)c1F)C(=O)C21CC1 [Form III]
